Tested on: HT-1080 (ATCC, CCL-121) cells
Assay: HT-1080 cell viability assay with ferroptosis inducer RSL3 (Cell Titer-Glo)
Type: cell-based
Details: Homo sapiens; HT-1080 cells treated with RSL3; 3-fold, 10-point dilution, 1.1 μM highest concentration; Table 2; read-out: EC50 (nM), ferroptosis inhibitory activity
Method: Example 2. Determination of EC50 Values in HT-1080 Cell Viability Assay
HT-1080 (ATCC, CCL-121) cells (6000 in 100 μl) were seeded in 96-well plates (Corning) and cultured in a 37° C. incubator with a humidified atmosphere of 5% CO2 for overnight. Cells were then treated with ferroptosis inducer RSL3 (TargetMol) and a 3-fold, 10-point serial dilution series of compounds with 1.1 μM as the highest concentration, […]. Cell viability was assessed using the Cell Titer-Glo Kit (Promega). The luminescence intensity was measured with a microplate reader (Envision, PerkinElmer), and cell viability was calculated by normalizing the data to untreated controls. The EC50 values of the compounds (e.g., Compounds 1-659) were calculated in GraphPad Prism (GraphPad Software, Inc., San Diego, CA, USA). The curves were fitted using a non-linear regression model with a sigmoidal dose response.

| SMILES | EC50 [nM] |
| --- | --- |
| CN1C(=O)COc2ccc(Nc3ccc(N4CCC(C(F)(F)F)CC4)cc3)cc21 [Compound 28, 4-methyl-6-((4-(4-(trifluoromethyl)piperidin-1-yl)phenyl)amino)-2H-benzo[b][1,4]oxazin-3(4H)-one] | 0.1 to 100 |
| CN1C(=O)COc2cc(Nc3ccc(N4CCCCC4)cc3)ccc21 [Compound 29] | 0.1 to 100 |
| CCCCCN(CC)c1ccc(Nc2ccc3c(c2)OCC(=O)N3C)cc1 [Compound 30, 7-((4-(ethyl(pentyl)amino)phenyl)amino)-4-methyl-2H-benzo[b][1,4]oxazin-3(4H)-one] | 0.1 to 100 |
| CCN(CCCOC)c1ccc(Nc2ccc3c(c2)OCC(=O)N3C)cc1 [Compound 31, 7-((4-(ethyl(3-methoxypropyl)amino)phenyl)amino)-4-methyl-2H-benzo[b][1,4]oxazin-3(4H)-one] | 0.1 to 100 |
| CCCCCOc1ccc(Nc2ccc3c(c2)OCC(=O)N3C)cc1OC [Compound 32, 7-((3-methoxy-4-(pentyloxy)phenyl)amino)-4-methyl-2H-benzo[b][1,4]oxazin-3(4H)-one] | 0.1 to 100 |
| CN1C(=O)COc2cc(Nc3ccc(F)c(N4CCC(C(F)(F)F)CC4)c3)ccc21 [Compound 33, 7-((4-fluoro-3-(4-(trifluoromethyl)piperidin-1-yl)phenyl)amino)-4-methyl-2H-benzo[b][1,4]oxazin-3(4H)-one] | 0.1 to 100 |
| CN1C(=O)COc2cc(Nc3ccc(N4CCC(C(F)(F)F)CC4)cc3F)ccc21 [Compound 34, 7-((2-fluoro-4-(4-(trifluoromethyl)piperidin-1-yl)phenyl)amino)-4-methyl-2H-benzo[b][1,4]oxazin-3(4H)-one] | 100 to 1000 |
| CN1C(=O)COc2cc(Nc3ccc(C4CCC(C)(C)CC4)cc3)ccc21 [Compound 35, 7-((4-(4,4-dimethylcyclohexyl)phenyl)amino)-4-methyl-2H-benzo[b][1,4]oxazin-3(4H)-one] | 0.1 to 100 |
| CC(C)C1CCN(c2ncc(Nc3ccc4c(c3)OCC(=O)N4C)cn2)CC1 [Compound 36, 7-((2-(4-isopropylpiperidin-1-yl)pyrimidin-5-yl)amino)-4-methyl-2H-benzo[b][1,4]oxazin-3(4H)-one] | 0.1 to 100 |
| CN1C(=O)COc2cc(Nc3ccc4c(c3)CCCC4(C)C)ccc21 [Compound 37, 7-((5,5-dimethyl-5,6,7,8-tetrahydronaphthalen-2-yl)amino)-4-methyl-2H-benzo[b][1,4]oxazin-3(4H)-one] | 0.1 to 100 |
| CCC(C)(C)c1ccc(Nc2ccc3c(c2)OCC(=O)N3C)cc1 [Compound 38, 4-methyl-7-((4-(tert-pentyl)phenyl)amino)-2H-benzo[b][1,4]oxazin-3(4H)-one] | 0.1 to 100 |
| CN1C(=O)COc2cc(Nc3ccc4c(c3)C(C)(C)CC4(C)C)ccc21 [Compound 39, 4-methyl-7-((1,1,3,3-tetramethyl-2,3-dihydro-1H-inden-5-yl)amino)-2H-benzo[b][1,4]oxazin-3(4H)-one] | 100 to 1000 |
| NC(=O)NCCN1C(=O)COc2cc(Nc3ccc(N4CCC(C(F)(F)F)CC4)cc3)ccc21 [Compound 40, 1-(2-(3-oxo-7-((4-(4-(trifluoromethyl)piperidin-1-yl)phenyl)amino)-2,3-dihydro-4H-benzo[b][1,4]oxazin-4-yl)ethyl)urea] | 0.1 to 100 |
| CNCCCN1C(=O)COc2cc(Nc3ccc(N4CCC(C(F)(F)F)CC4)cc3)ccc21 [Compound 41, 4-(3-(methylamino)propyl)-7-((4-(4-(trifluoromethyl)piperidin-1-yl)phenyl)amino)-2H-benzo[b][1,4]oxazin-3(4H)-one] | 0.1 to 100 |
| CN1C(=O)COc2cc(Nc3ccc4c(c3)CCC4(C)C)ccc21 [Compound 42, 7-((1,1-dimethyl-2,3-dihydro-1H-inden-5-yl)amino)-4-methyl-2H-benzo[b][1,4]o xazin-3(4H)-one] | 0.1 to 100 |
| CNCCN1C(=O)COc2cc(Nc3ccc(N4CCC(C(F)(F)F)CC4)cc3)ccc21 [Compound 43, 4-(2-(methylamino)ethyl)-7-((4-(4-(trifluoromethyl)piperidin-1-yl)phenyl)amino)-2H-benzo[b][1,4]oxazin-3(4H)-one] | 0.1 to 100 |
| CC1CN(c2ccc(Nc3ccc4c(c3)OCC(=O)N4C)cc2)CC(C)O1 (centres unmarked) [Compound 44, 7-((4-(2,6-dimethylmorpholino)phenyl)amino)-4-methyl-2H-benzo[b][1,4]oxazin-3(4H)-one] | 0.1 to 100 |
| CNCCCN1C(=O)COc2cc(Nc3ccc(N4CC(C)OC(C)C4)cc3)ccc21 (centres unmarked) [Compound 45, 7-((4-(2,6-dimethylmorpholino)phenyl)amino)-4-(3-(methylamino)propyl)-2H-benzo[b][1,4]oxazin-3(4H)-one] | 0.1 to 100 |

| SMILES | EC50 [nM] |
| --- | --- |
| NC(=O)CCCN1C(=O)COc2cc(Nc3ccc(N4CCC(C(F)(F)F)CC4)cc3)ccc21 [Compound 46, 4-(3-oxo-7-((4-(4-(trifluoromethyl)piperidin-1-yl)phenyl)amino)-2,3-dihydro-4H-benzo[b][1,4]oxazin-4-yl)butanamide] | 0.1 to 100 |
| CN1C(=O)COc2cc(Nc3ccc(C(C)(C)C)cc3)ccc21 [Compound 47, 7-((4-(tert-butyl)phenyl)amino)-4-methyl-2H-benzo[b][1,4]oxazin-3(4H)-one] | 0.1 to 100 |
| CNCCN1C(=O)COc2cc(Nc3ccc(C(C)(C)C)cc3)ccc21 [Compound 48, 7-((4-(tert-butyl)phenyl)amino)-4-(2-(methylamino)ethyl)-2H-benzo[b][1,4]oxazin-3(4H)-one] | 0.1 to 100 |
| CN1C(=O)COc2cc(Nc3ccc4c(c3)CC(C)(C)C4)ccc21 [Compound 49, 7-((2,2-dimethyl-2,3-dihydro-1H-inden-5-yl)amino)-4-methyl-2H-benzo[b][1,4] oxazin-3(4H)-one] | 0.1 to 100 |
| CNCCCN1C(=O)COc2cc(Nc3ccc(N4CC(C)OC(C)C4)cc3C)ccc21 (centres unmarked) [Compound 50, 7-((4-(2,6-dimethylmorpholino)-2-methylphenyl)amino)-4-(3-(methylamino)propyl)-2H-benzo[b][1,4]oxazin-3(4H)-one] | 0.1 to 100 |
| Cc1cc(N2CC(C)OC(C)C2)ccc1Nc1ccc2c(c1)OCC(=O)N2C (centres unmarked) [Compound 51, 7-((4-(2,6-dimethylmorpholino)-2-methylphenyl)amino)-4-methyl-2H-benzo[b][1,4]oxazin-3(4H)-one] | 0.1 to 100 |
| Cc1cc(Nc2ccc3c(c2)OCC(=O)N3C)ccc1N1CC(C)OC(C)C1 (centres unmarked) [Compound 52, 7-((4-(2,6-dimethylmorpholino)-3-methylphenyl)amino)-4-methyl-2H-benzo[b][1,4]oxazin-3(4H)-one] | 0.1 to 100 |
| CNCCN1C(=O)COc2cc(Nc3ccc(N4CC(C)OC(C)C4)cc3)ccc21 (centres unmarked) [Compound 53, 7-((4-(2,6-dimethylmorpholino)phenyl)amino)-4-(2-(methylamino)ethyl)-2H-benzo[b][1,4]oxazin-3(4H)-one] | 0.1 to 100 |
| CNCCN1C(=O)COc2cc(Nc3ccc(C4CC(C)OC(C)C4)cc3)ccc21 (centres unmarked) [Compound 54, 7-((4-(2,6-dimethyltetrahydro-2H-pyran-4-yl)phenyl)amino)-4-(2-(methylamino)ethyl)-2H-benzo[b][1,4]oxazin-3(4H)-one] | 0.1 to 100 |
| CNCCN1C(=O)COc2cc(Nc3ccc(N4CC(C)OC(C)C4)cc3C)ccc21 (centres unmarked) [Compound 55, 7-((4-(2,6-dimethylmorpholino)-2-methylphenyl)amino)-4-(2-(methylamino)ethyl)-2H-benzo[b][1,4]oxazin-3(4H)-one] | 0.1 to 100 |
| CNCCCN1C(=O)COc2cc(Nc3ccc(N4CC(C)OC(C)C4)c(C)c3)ccc21 (centres unmarked) [Compound 56, 7-((4-(2,6-dimethylmorpholino)-3-methylphenyl)amino)-4-(3-(methylamino)propyl)-2H-benzo[b][1,4]oxazin-3(4H)-one] | 0.1 to 100 |
| CN1C(=O)COc2cc(Nc3cc(F)c(N4CCC(C(F)(F)F)CC4)c(F)c3)ccc21 [Compound 57, 7-((3,5-difluoro-4-(4-(trifluoromethyl)piperidin-1-yl)phenyl)amino)-4-methyl-2H-benzo[b][1,4]oxazin-3(4H)-one] | 0.1 to 100 |
| CN1C(=O)COc2cc(Nc3cnc(N4CCC(C(F)(F)F)CC4)nc3)ccc21 [Compound 58, 4-methyl-7-((2-(4-(trifluoromethyl)piperidin-1-yl)pyrimidin-5-yl)amino)-2H-benzo[b][1,4]oxazin-3(4H)-one] | 0.1 to 100 |
| Cc1cc(N2CCC(C(F)(F)F)CC2)c(F)cc1Nc1ccc2c(c1)OCC(=O)N2C [Compound 59, 7-((5-fluoro-2-methyl-4-(4-(trifluoromethyl)piperidin-1-yl)phenyl)amino)-4-methyl-2H-benzo[b][1,4]oxazin-3(4H)-one] | 0.1 to 100 |
| CC1CN(c2ccc(Nc3ccc4c(c3)OCCN4C)cc2)CC(C)O1 (centres unmarked) [Compound 60, N-(4-(2,6-dimethylmorpholino)phenyl)-4-methyl-3,4-dihydro-2H-benzo[b][1,4]oxazin-7-amine] | 0.1 to 100 |
| Cc1cc(N2CC(C)OC(C)C2)c(F)cc1Nc1ccc2c(c1)OCC(=O)N2C (centres unmarked) [Compound 61, 7-((4-(2,6-dimethylmorpholino)-5-fluoro-2-methylphenyl)amino)-4-methyl-2H-benzo[b][1,4]oxazin-3(4H)-one] | 0.1 to 100 |
| CNCCN1C(=O)COc2cc(Nc3ccc(N4CC(C)OC(C)C4)c(C)c3)ccc21 (centres unmarked) [Compound 62, 7-((4-(2,6-dimethylmorpholino)-3-methylphenyl)amino)-4-(2-(methylamino)ethyl)-2H-benzo[b][1,4]oxazin-3(4H)-one] | 0.1 to 100 |

Source: patent US20240327393A1 (SIRONAX LTD., priority 2021, published 2024)
